According to patent US20040106135A1, “Assay for PPAR ligand dependent gene modulation” (priority 2002, published 2004):

Tests used:
[1] = system: hamster PDK-4 mRNA in kidney; assay: PDK-4 mRNA induction in kidney of fat-fed hamsters; format: in vivo; details: single dose (GW9578 3 mg/kg, fenofibrate 100 mg/kg, gemfibrozil 500 mg/kg), 16 hours
Description: (§1) FIG. 4B is a bar graphs depicting the induction of PDK-4 mRNA in hamster kidney by PPARα ligands. […] After 16 hours, the tissues were harvested, total RNA isolated and levels of hamster PDK-4 mRNA were detected by RT-PCR. The values are normalized to 18S rRNA levels. The mean and SEM of three individual animals are shown.
(§2) PDK-4 plays a critical role in regulating glucose metabolism by phosphorylating and inactivating the pyruvate dehydrogenase complex in response to increased fatty acid oxidation. […] To investigate the response of PDK-4 to fibrate treatment in vivo, in another aspect of the present invention the fat-fed hamster model was employed, which closely mimics the serum lipid profiles of humans than other rodent models (Sullivan et al., (1993) Lab. Anim. Sci. 43:575-578). […] These doses were previously shown to yield maximal effects on blood triglycerides in hamster. […] In hamster kidney, the basal levels of PDK-4 mRNA were approximately 10-fold higher than in the liver (FIG. 4B). […] Fibrates are effective treatments for lowering serum triglyceride levels. To verify that the doses used in this study were efficacious, blood triglyceride levels were monitored over a 48 hour time course.
(§3) Real-time PCR: Fluorescence-based real-time PCR was performed essentially as described (Abbaszade et al., (1999) J. Biol. Chem. 274:23443-23450). […] Taqman-based real-time PCR expression profiling was performed using 25 ng of each cDNA according to the manufacturer's (PE Biosystems) instructions with fluorescence being monitored in real-time with an ABI Prism 7700 (PE Biosystems). Relative expression levels were determined essentially as described (Gibson et al., (1996) Genome Res. 6:995-1001) using standard curves for each transcript. Relative abundance was then determined from these standard curves, subtracting mRNA levels obtained from negative control reactions performed in the absence of reverse transcriptase, and normalized to 18S rRNA levels. […]

[2] = system: hamster PDK-4 mRNA in liver; assay: PDK-4 mRNA induction in liver of fat-fed hamsters; format: in vivo; details: single dose (GW9578 3 mg/kg, fenofibrate 100 mg/kg, gemfibrozil 500 mg/kg), 16 hour post-treatment
Description: as §1, with “4A” for “4B”, “graph” for “graphs”, “liver” for “kidney”
as §2, §3

[3] = Serum triglyceride levels in fat-fed hamsters; format: in vivo, hamster; details: for Serum triglyceride levels, 48 h / Serum triglyceride levels, 8 h / Serum triglyceride levels, 16 h: single dose, mean +/- SEM, 3 animals; for Serum triglyceride levels, 48 h: control 208.67; for Serum triglyceride levels, 8 h: control 261.33; for Serum triglyceride levels, 16 h: control 308.00
Description: Blood was sampled at 8, 16 and 48 hours following a single drug treatment for total triglyceride analysis. The mean levels (+/−SEM) for 3 animals per group are shown. The “*” indicates a statistically significant difference with respect to control (p<0.01) by Student's t-test. Animal studies: All procedures performed in this study were approved by the Animal Care and Use committee, and conform to the guide for the Care and Use of Laboratory Animals Act. Male Syrian Golden hamsters (Charles River, Wilmington Mass.) weighing 120-140 g, were used in the study. Animals were kept on a 12-hour light/dark cycle and allowed free access to normal chow and water. The animals were divided into groups according to weight, and fed either an high fat diet (0.5% cholesterol, 5% coconut oil) (N=3) or normal chow diet (N=3). […] At intervals of 0, 8, 16 and 48 hr animals were anesthetized with CO2. Blood was collected by cardiac puncture into EDTA containing tubes; plasma was isolated for immediate analysis of triglycerides by the Dade Clinical Analyser®. Animals were then euthanized with CO2. The liver and kidneys were collected, flash frozen in liquid nitrogen and stored at −80° C. for future gene expression analysis.

[4] = system: PDK-4 mRNA in HK-2 cells (endogenous PPARα); assay: PDK-4 mRNA induction in HK-2 cells (real-time RT-PCR); format: cell-based, human; details: 24 hours; for EC50: Homo sapiens, HK-2, PDK-4 mRNA induction by quantitative PCR, normalized to 18S rRNA, read-out: EC50 (μM) in HK-2 (PDK-4)
Description: (§4) Values were normalized to 18S rRNA levels.
(§5) EC50 values were determined for PDK-4 mRNA induction by quantitative PCR under conditions used to generate the data shown in FIG. 2. EC50 values in the transactivation assays were determined by transfection of an expression plasmid encoding a GAL4-hPPARα chimera into cells co-expressing a luciferase reporter gene under the transcriptional control of GAL4 upstream activating elements.
(§6) Cell culture: The following cell lines were obtained from American Type Culture Collection (ATCC) and cultured in the recommended medium for each cell type: HepG2, HK-2, Caki-1, LNCaP (CloneFGC), SW872, and ACHN. PPARα compounds were prepared to a 500× stock in DMSO; corresponding control cells received an equal volume of vehicle (0.2% v/v).
Real-time PCR: Fluorescence-based real-time PCR was performed essentially as described (Abbaszade et al., (1999) J. Biol. Chem. 274:23443-23450). Primers and probes designed from the hamster pyruvate dehydrogenase kinase 4 (PDK4) sequence (Genbank Accession No. AF321218), human pyruvate dehydrogenase kinase 4 (PDK-4) sequence (Genbank Accession No. NM_002612) and human adipose differentiation-related protein (ADFP) sequence (Genbank Accession No. NM_001122) were synthesized and purified by Biosearch Technologies. Probes for ADFP and PDK-4 were modified at the 5′ end with the reporter dye 6-FAM, and at the 3′ end with the quencher dye Black Hole Quencher 1 (Biosearch Technologies). Probes detecting rat 18S rRNA were modified at the 5′ end with VIC and at the 3′ end with TAMRA (Biosearch Technologies). For detection of hamster PDK4, primers 5′-[…] (SEQ ID NO:2), 5′[…] (SEQ ID NO:3), and probe 5′-[…] (SEQ ID NO:4) were used. For detection of human PDK4, primers 5′-[…] (SEQ ID NO:5), 5′-[…] (SEQ ID NO:6), and probe 5′-[…] (SEQ ID NO:7) were used. For detection of human ADFP, primers 5′-[…] (SEQ ID NO:8), 5′-[…] (SEQ ID NO:9), and probe 5′-[…] (SEQ ID NO: 10) were used. For detection of 18s rRNA, primers 5′-[…] (SEQ ID NO:11), 5′-[…] (SEQ ID NO:12), and probe 5′-[…] (SEQ ID NO:13) were used. Template cDNA was generated using the Advantage RT-PCR kit according to the manufacturer's (Clontech) instructions using random hexamers and 1 μg of DNaseI-treated total RNA. Taqman-based real-time PCR expression profiling was performed using 25 ng of each cDNA according to the manufacturer's (PE Biosystems) instructions with fluorescence being monitored in real-time with an ABI Prism 7700 (PE Biosystems). Relative expression levels were determined essentially as described (Gibson et al., (1996) Genome Res. 6:995-1001) using standard curves for each transcript. Relative abundance was then determined from these standard curves, subtracting mRNA levels obtained from negative control reactions performed in the absence of reverse transcriptase, and normalized to 18S rRNA levels. All expression measurements were performed in duplicate in two independent assays, generating a total of four measurements per cDNA.

GAL4-hPPARα = molecular target: T1, GAL4-hPPARα (Homo sapiens, UniProt Q07869); assay: Transactivation assay, GAL4-hPPARα chimera with luciferase reporter; format: cell-based; details: HEK293 cell line with GAL4 UAS-Luciferase reporter; read-out: EC50 (μM) in Transactivation Assay (GAL4-hPPARα), Present Disclosure
T1 construct: other: HEK293 cell line with GAL4 UAS-Luciferase
T1 sequence (Q07869 200-468 limits assumed): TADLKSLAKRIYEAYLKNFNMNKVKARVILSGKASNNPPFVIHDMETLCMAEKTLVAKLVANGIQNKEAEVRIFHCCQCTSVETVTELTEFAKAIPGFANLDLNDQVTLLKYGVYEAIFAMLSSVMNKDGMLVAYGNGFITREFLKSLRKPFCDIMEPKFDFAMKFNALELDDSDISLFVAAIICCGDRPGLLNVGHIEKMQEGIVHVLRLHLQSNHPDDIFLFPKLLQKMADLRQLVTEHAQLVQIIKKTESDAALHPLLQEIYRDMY
Description: as §5
Transcriptional activation assay: Cell based transcriptional activation assays using a GAL4-hPPARa expression plasmid and an HEK293 cell line stably integrated with a GAL4 UAS-Luciferase reporter gene was performed exactly as described previously (Mukherjee et al., (2002) J. Steroid Biochem. Mol. Biol. 1712:1-9).

PDK-4 [5] = details: Way et al. (2001); cited from earlier work
[6] = system: PDK4 mRNA in HEK293 cells; assay: PDK4 mRNA induction in HEK293 cells by PPAR modulators (Taqman PCR); format: cell-based, human; details: 4 hours; 100 micromolar fenofibric acid, 10 micromolar rosiglitazone, 10 micromolar GW501516; relative to CYCD1 mRNA
Description: HEK293 cells were treated for 4 hours with the following PPAR modulators:
100 micromolar fenofibric acid (a PPARα selective modulator), 10 micromolar rosiglitazone (a PPARγ selective modulator) and 10 micromolar GW501516 (a PPARβ(δ) selective modulator; Oliver et al., (2001) Proc. Natl. Acad. Sci. U.S.A. 98:5306-11). PDK4 mRNA was measured by Taqman PCR analysis. The PDK4 expression levels are expressed relative to CYCD1 mRNA used as a normalization control.

[7] = system: ADRP mRNA in HK-2 cells (endogenous PPARα); assay: ADRP mRNA induction in HK-2 cells (real-time RT-PCR); format: cell-based, human; details: highest dose tested 300 μM
Description: as §4, §6, §3

hamster PPARα = assay: Hamster PPARα transactivation assay; format: cell-based
PDK-4 [8] = details: Wu et al. (1999); abrogated in PPARα-/- mice; cited from earlier work

Compound | Induction of PDK-4 mRNA in kidney [1] | Induction of PDK-4 mRNA levels in the liver [2] | Serum triglyceride levels, 48 h [3] | Serum triglyceride levels, 8 h [3] | Serum triglyceride levels, 16 h [3] | EC50 [4] [µM] | EC50 (GAL4-hPPARα) [µM] | other results
CC(C)OC(=O)C(C)(C)Oc1ccc(C(=O)c2ccc(Cl)cc2)cc1 [Fenofibrate, fenofibrate] | 11 fold | 14 fold | 146.33 + 17.15 | 229.00 + 38.52 | 231.67 + 63.22 |  |  | 
CC(C)(Oc1ccc(C(=O)c2ccc(Cl)cc2)cc1)C(=O)O [Fenofibric Acid, fenofibric acid] |  |  |  |  |  | 10 | 80 | 
CN(CCOc1ccc(C[C@H](Nc2ccccc2C(=O)c2ccccc2)C(=O)O)cc1)c1ccccn1 [GW1929] |  |  |  |  |  |  |  | PDK-4 levels in the skeletal muscle of rats (PDK-4 [5]): decrease PDK-4 levels
Cc1cc(SCc2sc(-c3ccc(C(F)(F)F)cc3)nc2C)ccc1OCC(=O)O [GW501516] |  |  |  |  |  |  |  | PDK4 mRNA induction in HEK293 cells [6]: induced
Cc1ccc(C)c(OCCCC(C)(C)C(=O)O)c1 [Gemfibrozil] | no effect | least effect | 206.33 + 65.30 | 334.33 + 82.42 | 325.67 + 46.77 | 27 | 60 | Efficacy of PDK-4 induction compared with GW9578 ([4]; HK-2 cells, maximal induction by GW9578 = 100%): lower efficacy than GW9578; Saturation of ADRP induction [7]: did not appear to saturate; Activity in hamster PPARα transactivation assay (hamster PPARα): lowest activity; Change of triglyceride levels compared with the control group ([3]; single dose, 8, 16 and 48 hours): neither gemfibrozil nor fenofibrate altered triglyceride levels to a statistically significant degree
Cc1cccc(Nc2cc(Cl)nc(SCC(=O)O)n2)c1C [WY-14, 643] |  |  |  |  |  |  |  | PDK-4 induction in rodent tissues in vivo (PDK-4 [8]): PDK-4 induction was observed
